Source: ChEMBL document CHEMBL4270485, “Determination of Gymnemic Acid I as a Protein Biosynthesis Inhibitor Using Chemical Proteomics” (J Nat Prod, 2017)
Calls of active or inactive are those of the source. The rule behind the calls is not given here.

How the values were obtained:
[1] = target: T1, 80S Ribosome (Homo sapiens) (UniProt P08865+P42677+P62753+P15880+P23396+P61247+P62701+P22090+P46782+P62081+P62241+P46781+P46783+P62280+P25398+P62277+P62263+P62841+P62244+P62249+P08708+P62269+P39019+P60866+P63220+P62266+P62847+P62851+P62854+P62979+P62857+P62273+P62861+P39023+P36578+P46777+Q02878+P18124+P62424+P62917+P32969+P27635+P62906+P62913+P30050+P26373+P40429+P50914+P61313+P18621+Q07020+Q02543+P84098+P46778+P35268+P62829+P62750+P83731+P61254+P61353+P46776+P46779+P47914+P62888+P62899+P62910+P49207+P42766+P18077+Q9Y3U8+P83881+P61927+P61513+P63173+P62891+P62945+P05388+P05386); assay: Binding affinity to ribosomal protein S10 in human Hela cells lysates assessed as protein enrichment by Western blotting analysis; type: cell-free
Oryctolagus cuniculus = species: Oryctolagus cuniculus; assay: Inhibition of protein synthesis in rabbit reticulocytes pre-incubated for 30 mins before labeled-lysine-t-RNA and amino acid mixture addition and measured after 1 hr by luciferase reporter gene assay; type: functional, cell-based
[2] = target: 14-3-3 protein zeta/delta (Homo sapiens) (UniProt P63104); assay: Binding affinity to […] zeta/delta in human Hela cells lysates assessed as protein enrichment by measuring normalized heavy/light ratio at by nano-LC-ESIMS/MS analysis; type: cell-free
Chain of 14-3-3 protein zeta/delta (Homo sapiens) (P63104 whole entry): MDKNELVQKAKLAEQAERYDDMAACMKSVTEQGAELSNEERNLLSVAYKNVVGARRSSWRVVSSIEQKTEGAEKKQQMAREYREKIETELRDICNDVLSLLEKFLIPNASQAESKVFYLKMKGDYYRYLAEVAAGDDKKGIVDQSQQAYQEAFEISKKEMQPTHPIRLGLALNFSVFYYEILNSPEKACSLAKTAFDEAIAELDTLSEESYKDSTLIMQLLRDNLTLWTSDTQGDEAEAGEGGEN

[3] = target: T1, 80S Ribosome (Homo sapiens); assay: Binding affinity to 40S ribosomal protein S7 in human Hela cells lysates assessed as protein enrichment by measuring normalized heavy/light ratio at by nano-LC-ESIMS/MS analysis; type: cell-free
[4] = target: T1, 80S Ribosome (Homo sapiens); assay: Binding affinity to 40S ribosomal protein S2 in human Hela cells lysates assessed as protein enrichment by measuring normalized heavy/light ratio at by nano-LC-ESIMS/MS analysis; type: cell-free
[5] = target: Small ribosomal subunit protein eS27 (Homo sapiens) (UniProt P42677); assay: Binding affinity to 40S ribosomal protein S27 in human Hela cells lysates assessed as protein enrichment by measuring normalized heavy/light ratio at by nano-LC-ESIMS/MS analysis; type: cell-free
[6] = target: T1, 80S Ribosome (Homo sapiens); assay: Binding affinity to 40S ribosomal protein S3 in human Hela cells lysates assessed as protein enrichment by measuring normalized heavy/light ratio at by nano-LC-ESIMS/MS analysis; type: cell-free
[7] = target: T1, 80S Ribosome (Homo sapiens); assay: Binding affinity to 40S ribosomal protein S4 in human Hela cells lysates assessed as protein enrichment by measuring normalized heavy/light ratio at by nano-LC-ESIMS/MS analysis; type: cell-free
[8] = target: T1, 80S Ribosome (Homo sapiens); assay: Binding affinity to 60S acidic ribosomal protein P0 in human Hela cells lysates assessed as protein enrichment by measuring normalized heavy/light ratio at by nano-LC-ESIMS/MS analysis; type: cell-free
[9] = target: Large ribosomal subunit protein P2 (Homo sapiens) (UniProt P05387); assay: Binding affinity to 60S acidic ribosomal protein P2 in human Hela cells lysates assessed as protein enrichment by measuring normalized heavy/light ratio at by nano-LC-ESIMS/MS analysis; type: cell-free
Chain of Large ribosomal subunit protein P2 (Homo sapiens) (P05387 whole entry): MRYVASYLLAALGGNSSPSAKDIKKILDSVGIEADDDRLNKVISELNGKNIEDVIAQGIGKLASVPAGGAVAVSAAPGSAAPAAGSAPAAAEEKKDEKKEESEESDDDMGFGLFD

[10] = target: T1, 80S Ribosome (Homo sapiens); assay: Binding affinity to 60S ribosomal protein L10 in human Hela cells lysates assessed as protein enrichment by measuring normalized heavy/light ratio at by nano-LC-ESIMS/MS analysis; type: cell-free
[11] = target: T1, 80S Ribosome (Homo sapiens); assay: Binding affinity to 60S ribosomal protein L13 in human Hela cells lysates assessed as protein enrichment by measuring normalized heavy/light ratio at by nano-LC-ESIMS/MS analysis; type: cell-free
[12] = target: T1, 80S Ribosome (Homo sapiens); assay: Binding affinity to 60S ribosomal protein L23a in human Hela cells lysates assessed as protein enrichment by measuring normalized heavy/light ratio at by nano-LC-ESIMS/MS analysis; type: cell-free
[13] = target: T1, 80S Ribosome (Homo sapiens); assay: Binding affinity to 60S ribosomal protein L9 in human Hela cells lysates assessed as protein enrichment by measuring normalized heavy/light ratio at by nano-LC-ESIMS/MS analysis; type: cell-free
[14] = target: Alkyldihydroxyacetonephosphate synthase, peroxisomal (Homo sapiens) (UniProt O00116); assay: Binding affinity to alkyldihydroxyacetone phosphate synthase in human Hela cells lysates assessed as protein enrichment by measuring normalized heavy/light ratio at by nano-LC-ESIMS/MS analysis; type: cell-free
Chain of Alkyldihydroxyacetonephosphate synthase, peroxisomal (Homo sapiens) (O00116 whole entry): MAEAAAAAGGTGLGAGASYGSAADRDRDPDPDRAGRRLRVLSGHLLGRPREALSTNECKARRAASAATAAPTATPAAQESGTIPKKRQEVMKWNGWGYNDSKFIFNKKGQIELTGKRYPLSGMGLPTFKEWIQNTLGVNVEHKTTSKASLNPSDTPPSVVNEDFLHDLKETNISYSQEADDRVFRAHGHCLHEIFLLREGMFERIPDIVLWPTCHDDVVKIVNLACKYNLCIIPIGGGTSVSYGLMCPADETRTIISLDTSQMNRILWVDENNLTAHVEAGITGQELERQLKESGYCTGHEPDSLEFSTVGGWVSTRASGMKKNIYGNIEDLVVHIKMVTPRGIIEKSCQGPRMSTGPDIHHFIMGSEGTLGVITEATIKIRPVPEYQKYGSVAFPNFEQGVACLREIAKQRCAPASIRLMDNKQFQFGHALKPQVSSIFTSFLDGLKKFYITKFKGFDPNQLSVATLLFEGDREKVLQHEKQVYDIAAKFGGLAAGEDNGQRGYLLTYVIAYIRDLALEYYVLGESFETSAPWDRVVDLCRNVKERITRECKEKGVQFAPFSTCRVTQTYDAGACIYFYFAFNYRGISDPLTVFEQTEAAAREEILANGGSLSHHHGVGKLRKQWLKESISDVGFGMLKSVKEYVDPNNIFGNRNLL

[15] = target: D-3-phosphoglycerate dehydrogenase (Homo sapiens) (UniProt O43175); assay: Binding affinity to D3-phosphoglycerate dehydrogenase in human Hela cells lysates assessed as protein enrichment by measuring normalized heavy/light ratio at by nano-LC-ESIMS/MS analysis; type: cell-free
Chain of D-3-phosphoglycerate dehydrogenase (Homo sapiens) (O43175 whole entry): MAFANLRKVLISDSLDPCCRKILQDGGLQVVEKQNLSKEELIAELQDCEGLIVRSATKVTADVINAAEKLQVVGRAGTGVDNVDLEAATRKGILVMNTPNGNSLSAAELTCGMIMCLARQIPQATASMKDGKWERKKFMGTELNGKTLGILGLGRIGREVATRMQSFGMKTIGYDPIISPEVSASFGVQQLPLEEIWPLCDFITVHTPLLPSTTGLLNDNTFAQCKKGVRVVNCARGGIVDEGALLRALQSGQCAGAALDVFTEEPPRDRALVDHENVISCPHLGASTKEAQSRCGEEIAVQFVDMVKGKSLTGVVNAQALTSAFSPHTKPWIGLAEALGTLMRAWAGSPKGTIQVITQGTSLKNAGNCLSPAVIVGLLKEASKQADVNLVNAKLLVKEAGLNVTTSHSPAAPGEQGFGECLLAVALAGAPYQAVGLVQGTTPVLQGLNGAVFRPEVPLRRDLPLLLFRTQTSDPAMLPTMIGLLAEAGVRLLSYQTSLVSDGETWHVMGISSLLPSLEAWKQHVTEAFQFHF

[16] = target: Glyceraldehyde-3-phosphate dehydrogenase (Homo sapiens) (UniProt P04406); assay: Binding affinity to glyceraldehyde-3-phosphate dehydrogenase in human Hela cells lysates assessed as protein enrichment by measuring normalized heavy/light ratio at by nano-LC-ESIMS/MS analysis; type: cell-free
Chain of Glyceraldehyde-3-phosphate dehydrogenase (Homo sapiens) (P04406 2-335 limits assumed): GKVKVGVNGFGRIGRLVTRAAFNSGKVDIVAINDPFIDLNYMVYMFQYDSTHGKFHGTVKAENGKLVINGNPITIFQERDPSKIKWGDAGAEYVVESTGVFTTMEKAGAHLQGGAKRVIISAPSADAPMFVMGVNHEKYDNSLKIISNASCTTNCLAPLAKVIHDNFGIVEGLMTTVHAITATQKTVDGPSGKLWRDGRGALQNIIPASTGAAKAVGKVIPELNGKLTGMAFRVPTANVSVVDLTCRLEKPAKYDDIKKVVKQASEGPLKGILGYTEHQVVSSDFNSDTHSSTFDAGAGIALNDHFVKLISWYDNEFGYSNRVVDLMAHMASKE

[17] = target: Heat shock cognate 71 kDa protein (Homo sapiens) (UniProt P11142); assay: Binding affinity to heat shock cognate 71 kDa protein in human Hela cells lysates assessed as protein enrichment by measuring normalized heavy/light ratio at by nano-LC-ESIMS/MS analysis; type: cell-free
Chain of Heat shock cognate 71 kDa protein (Homo sapiens) (P11142 2-646 limits assumed): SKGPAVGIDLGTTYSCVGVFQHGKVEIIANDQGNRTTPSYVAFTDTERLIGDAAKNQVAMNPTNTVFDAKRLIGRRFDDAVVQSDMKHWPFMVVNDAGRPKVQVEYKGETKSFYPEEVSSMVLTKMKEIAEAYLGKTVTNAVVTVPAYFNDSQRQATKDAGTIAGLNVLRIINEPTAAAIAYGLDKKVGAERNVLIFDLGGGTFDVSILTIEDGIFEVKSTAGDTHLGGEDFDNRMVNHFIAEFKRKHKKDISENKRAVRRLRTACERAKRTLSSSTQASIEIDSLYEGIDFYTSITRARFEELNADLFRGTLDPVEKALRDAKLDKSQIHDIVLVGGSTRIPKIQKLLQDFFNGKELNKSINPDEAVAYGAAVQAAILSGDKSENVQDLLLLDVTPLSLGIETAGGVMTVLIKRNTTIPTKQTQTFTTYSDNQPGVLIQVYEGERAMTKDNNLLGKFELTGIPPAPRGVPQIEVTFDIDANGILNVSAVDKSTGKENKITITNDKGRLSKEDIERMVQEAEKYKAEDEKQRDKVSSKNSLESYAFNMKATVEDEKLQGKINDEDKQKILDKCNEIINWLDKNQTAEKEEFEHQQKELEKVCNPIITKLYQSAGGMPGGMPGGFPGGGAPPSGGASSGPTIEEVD

[18] = target: Peroxiredoxin-1 (Homo sapiens) (UniProt Q06830); assay: Binding affinity to peroxiredoxin-1 in human Hela cells lysates assessed as protein enrichment by measuring normalized heavy/light ratio at by nano-LC-ESIMS/MS analysis; type: cell-free
Chain of Peroxiredoxin-1 (Homo sapiens) (Q06830 whole entry): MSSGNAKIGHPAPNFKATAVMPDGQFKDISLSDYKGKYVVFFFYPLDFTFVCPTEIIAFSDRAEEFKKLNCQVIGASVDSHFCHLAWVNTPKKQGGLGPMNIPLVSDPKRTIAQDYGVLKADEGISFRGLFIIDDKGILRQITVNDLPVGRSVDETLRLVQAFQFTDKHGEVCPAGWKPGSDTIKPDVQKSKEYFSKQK

[19] = target: Solute carrier family 25 member 3 (Homo sapiens) (UniProt Q00325); assay: Binding affinity to phosphate carrier protein in human Hela cells lysates assessed as protein enrichment by measuring normalized heavy/light ratio at by nano-LC-ESIMS/MS analysis; type: cell-free
Chain of Solute carrier family 25 member 3 (Homo sapiens) (Q00325 whole entry): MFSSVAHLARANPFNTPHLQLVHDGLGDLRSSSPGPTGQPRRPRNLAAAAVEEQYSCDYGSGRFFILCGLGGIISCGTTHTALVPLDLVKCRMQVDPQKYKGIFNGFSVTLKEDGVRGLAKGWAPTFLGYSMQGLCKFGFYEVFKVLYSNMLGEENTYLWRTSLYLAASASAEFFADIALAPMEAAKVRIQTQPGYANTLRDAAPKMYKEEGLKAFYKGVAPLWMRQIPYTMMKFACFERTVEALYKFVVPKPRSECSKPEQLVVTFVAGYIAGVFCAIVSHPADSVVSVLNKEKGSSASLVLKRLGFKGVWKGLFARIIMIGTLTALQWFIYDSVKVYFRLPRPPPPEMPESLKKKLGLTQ

[20] = target: Phosphoglycerate kinase 1 (Homo sapiens) (UniProt P00558); assay: Binding affinity to phosphoglycerate kinase 1 in human Hela cells lysates assessed as protein enrichment by measuring normalized heavy/light ratio at by nano-LC-ESIMS/MS analysis; type: cell-free
Chain of Phosphoglycerate kinase 1 (Homo sapiens) (P00558 whole entry): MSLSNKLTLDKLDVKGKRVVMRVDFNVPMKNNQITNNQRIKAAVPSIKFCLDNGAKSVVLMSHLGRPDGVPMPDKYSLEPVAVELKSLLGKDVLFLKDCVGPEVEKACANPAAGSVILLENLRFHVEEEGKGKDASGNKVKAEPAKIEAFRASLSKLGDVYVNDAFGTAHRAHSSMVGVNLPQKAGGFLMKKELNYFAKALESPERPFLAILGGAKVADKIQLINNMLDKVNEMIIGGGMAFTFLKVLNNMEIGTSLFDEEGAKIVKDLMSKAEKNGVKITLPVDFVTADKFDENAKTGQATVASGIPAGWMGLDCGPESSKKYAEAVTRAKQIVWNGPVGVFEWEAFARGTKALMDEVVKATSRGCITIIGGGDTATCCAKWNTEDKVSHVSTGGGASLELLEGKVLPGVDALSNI

[21] = target: Programmed cell death protein 6 (Homo sapiens) (UniProt O75340); assay: Binding affinity to programmed cell death protein 6 in human Hela cells lysates assessed as protein enrichment by measuring normalized heavy/light ratio at by nano-LC-ESIMS/MS analysis; type: cell-free
Chain of Programmed cell death protein 6 (Homo sapiens) (O75340 whole entry): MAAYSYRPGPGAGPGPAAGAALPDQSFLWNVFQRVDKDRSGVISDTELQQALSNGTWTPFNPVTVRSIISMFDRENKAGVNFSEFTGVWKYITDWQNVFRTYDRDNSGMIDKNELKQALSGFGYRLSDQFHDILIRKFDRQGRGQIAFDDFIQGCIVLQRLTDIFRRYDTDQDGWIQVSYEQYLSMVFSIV

[22] = target: Putative annexin A2-like protein (Homo sapiens) (UniProt A6NMY6); assay: Binding affinity to putative annexin A2-like protein in human Hela cells lysates assessed as protein enrichment by measuring normalized heavy/light ratio at by nano-LC-ESIMS/MS analysis; type: cell-free
Chain of Putative annexin A2-like protein (Homo sapiens) (A6NMY6 whole entry): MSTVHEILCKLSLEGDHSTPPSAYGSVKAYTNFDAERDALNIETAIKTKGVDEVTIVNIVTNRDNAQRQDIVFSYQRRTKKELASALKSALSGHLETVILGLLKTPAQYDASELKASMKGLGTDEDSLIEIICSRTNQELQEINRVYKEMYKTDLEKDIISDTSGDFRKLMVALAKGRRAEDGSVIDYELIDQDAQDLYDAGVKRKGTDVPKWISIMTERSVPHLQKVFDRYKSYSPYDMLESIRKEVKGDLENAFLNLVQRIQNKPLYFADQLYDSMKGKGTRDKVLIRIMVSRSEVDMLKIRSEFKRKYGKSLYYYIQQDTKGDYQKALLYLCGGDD

[23] = target: Ras-related protein Rab-7a (Homo sapiens) (UniProt P51149); assay: Binding affinity to ras-related protein rab-7a in human Hela cells lysates assessed as protein enrichment by measuring normalized heavy/light ratio at by nano-LC-ESIMS/MS analysis; type: cell-free
Chain of Ras-related protein Rab-7a (Homo sapiens) (P51149 whole entry): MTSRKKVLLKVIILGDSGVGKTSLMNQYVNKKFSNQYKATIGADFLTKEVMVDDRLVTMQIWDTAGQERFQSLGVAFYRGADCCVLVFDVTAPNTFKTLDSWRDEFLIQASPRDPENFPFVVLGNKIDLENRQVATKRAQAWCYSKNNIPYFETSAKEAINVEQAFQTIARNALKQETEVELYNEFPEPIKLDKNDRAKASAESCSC

[24] = target: Rho-related GTP-binding protein RhoQ (Homo sapiens) (UniProt P17081); assay: Binding affinity to rho-related GTP-binding protein in human Hela cells lysates assessed as protein enrichment by measuring normalized heavy/light ratio at by nano-LC-ESIMS/MS analysis; type: cell-free
Chain of Rho-related GTP-binding protein RhoQ (Homo sapiens) (P17081 whole entry): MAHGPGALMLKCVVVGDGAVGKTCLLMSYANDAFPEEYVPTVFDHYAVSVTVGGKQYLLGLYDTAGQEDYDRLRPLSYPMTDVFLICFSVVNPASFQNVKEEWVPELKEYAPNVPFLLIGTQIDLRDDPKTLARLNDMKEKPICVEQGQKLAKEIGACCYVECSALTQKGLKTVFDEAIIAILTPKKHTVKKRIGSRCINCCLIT

[25] = target: Stress-70 protein, mitochondrial (Homo sapiens) (UniProt P38646); assay: Binding affinity to stress-70 protein in human Hela cells lysates assessed as protein enrichment by measuring normalized heavy/light ratio at by nano-LC-ESIMS/MS analysis; type: cell-free

For `C/C=C(\C)C(=O)O[C@H]1[C@H](O)[C@]2(COC(C)=O)[C@@H](O)C[C@]3(C)C(=CC[C@@H]4[C@@]5(C)CC[C@H](O[C@@H]6O[C@H](C(=O)O)[C@@H](O)[C@H](O)[C@H]6O)[C@@](C)(CO)[C@@H]5CC[C@]43C)[C@@H]2CC1(C)C`, the Activity [1] was “Active”, the inhibition (Oryctolagus cuniculus) was “Dose-dependent effect” and the Ratio [2] was 0.62. The Ratio [3] was 0.119, the Ratio [4] was 0.114 and the Ratio [5] was 0.418. The Ratio [6] was 0.269, the Ratio [7] was 0.16 and the Ratio [8] was 0.245. It also gave a Ratio [9] of 0.329, a Ratio [10] of 0.105 and a Ratio [11] of 0.332. The Ratio [12] was 0.313, the Ratio [13] was 0.453 and the Ratio [14] was 0.955. For the same compound, the Ratio [15] was 0.509, the Ratio [16] was 0.524 and the Ratio [17] was 0.615. For the same compound, the Ratio [18] was 1.06, the Ratio [19] was 0.57 and the Ratio [20] was 0.665. The Ratio [21] was 0.68, the Ratio [22] was 0.988 and the Ratio [23] was 0.568. For the same compound, the Ratio [24] was 0.706 and the Ratio [25] was 0.751.
